Measured values taken from paper PMC1940322, “The Effect of PPARα, PPARδ, PPARγ, and PPARpan Agonists on Body Weight, Body Mass, and Serum Lipid Profiles in Diet-Induced Obese AKR/J Mice” (PPAR Research, 2007).
“And” between values parts separate entries of the source, which are not always exact repeats. Equal values may be shown once.

Legend:
murine PPARα = target: T1, murine PPARα (Mus musculus, UniProt P23204); assay: PPAR-GAL4 transient transfection transactivation assay (SPAP reporter) in CV-1 cells, PPARα; format: cell-based; conditions: for EC50: CV-1 cells, GAL4 chimera, read-out: mPPARα, murine receptor activation EC50; for mPPARα %Max: maximal activation vs reference comparator
T1 construct: expressed in transfected cells; host or cells: CV-1 cells
T1 sequence (P23204 239-466 limits assumed): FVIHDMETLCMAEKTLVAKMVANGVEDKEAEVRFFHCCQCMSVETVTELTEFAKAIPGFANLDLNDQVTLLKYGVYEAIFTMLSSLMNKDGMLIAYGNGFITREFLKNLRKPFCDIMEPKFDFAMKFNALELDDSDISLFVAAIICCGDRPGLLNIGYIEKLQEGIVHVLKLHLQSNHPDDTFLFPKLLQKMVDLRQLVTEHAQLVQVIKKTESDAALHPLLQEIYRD
Description: The functional potency of selected ligands was evaluated using a transient transfection assay in CV-1 cells. The ligand binding domains for murine PPARα, PPARδ, and PPARγ were fused to the yeast transcription factor GAL4 DNA binding domain as a chimera. CV-1 cells were propagated and transiently transfected with expression vectors for the respective PPAR chimera as previously described. Test compounds were compared to reference comparators that give maximum responses in this assay. Compounds which produced an activation of at 70% or greater, compared to a positive control, were considered full agonists.

murine PPARγ = target: T2, murine PPARγ (Mus musculus, UniProt P37238); assay: PPAR-GAL4 transient transfection transactivation assay (SPAP reporter) in CV-1 cells, PPARγ; format: cell-based; conditions: for EC50: CV-1 cells, GAL4 chimera, read-out: mPPARγ, murine receptor activation EC50; for mPPARγ %Max: maximal activation vs reference comparator
T2 construct: expressed in transfected cells; host or cells: CV-1 cells
T2 sequence (P37238 238-503 limits assumed): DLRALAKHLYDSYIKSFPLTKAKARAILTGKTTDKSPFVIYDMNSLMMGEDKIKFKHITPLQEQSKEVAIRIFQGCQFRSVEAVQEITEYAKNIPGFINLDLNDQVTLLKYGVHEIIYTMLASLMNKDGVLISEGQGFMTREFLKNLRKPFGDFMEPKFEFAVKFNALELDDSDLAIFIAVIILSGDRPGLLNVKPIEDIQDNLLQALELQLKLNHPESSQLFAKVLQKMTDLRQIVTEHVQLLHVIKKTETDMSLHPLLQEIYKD
Description: (§1) The functional potency of selected ligands was evaluated using a transient transfection assay in CV-1 cells. The ligand binding domains for murine PPARα, PPARδ, and PPARγ were fused to the yeast transcription factor GAL4 DNA binding domain as a chimera. CV-1 cells were propagated and transiently transfected with expression vectors for the respective PPAR chimera as previously described.

[1] = system: diet-induced obese (DIO) AKR/J mouse; assay: Food consumption in diet-induced obese AKR/J mice; format: in vivo; conditions: for effect on food consumption (in words): compared to vehicle-treated animals, doses and regimen as in methods
Description: In each experiment, BW of each animal was measured and recorded three times weekly throughout the treatment period. Body mass was obtained weekly on days 0, 7, 13, 20, and 27 of treatment. The effects of selective PPARα, δ, and γ agonists on food consumption were also assessed. Food consumption is expressed as total energy consumed (kcal) over a 24-period and as cumulative consumption over the course of the experiment.
The fat content of Research Diets D12331 chow results in pellets that crumbles making it difficult to quantify food consumption thus, Research Diets D12451 chow (4.7 kcal/g (45% kcal from fat, 35% kcal from carbohydrates and 20% kcal from protein)) was used in studies where food consumption was determined as these pellets are more solid. The animals were transitioned two weeks before compound dosing from Research Diets D12331 chow to Research Diets D12451 chow. Previous experiments (data not presented) have shown that animals fed this diet maintain the same BW and fat mass level as observed at the time of transition.
Experiment 1 was designed to study the effects of a selective PPARα agonist and PPARδ agonist as mono and combination therapy. 48 mice were sorted into 6 groups and blocked such that initial BW and body composition were not different between groups. […] Two additional groups of mice were dosed for the first 14 days with either a PPARα agonist or a PPARδ agonist alone. At day 15, the PPARδ agonist was added to the treatment regimen of animals dosed with PPARα, and the PPARα agonist was added to the dosing material of animals previously dosed with PPARδ alone. The sixth group was dosed with both the PPARα and PPARδ agonists for the entire 28-day period. BW and food consumption were assessed 3 times per week and body composition was measured weekly.
In Experiment 2, 32 mice were sorted into 4 groups (n = 8/group) and dosed with vehicle and a selective PPARγ agonist (GW7845, 3 mg/kg) for 28 days. Rimonabant (RIM, 10 or 30 mg/kg, q.d.), a CB1 receptor antagonist, was used as a positive control for weight loss. As in Experiment 1, BW and food consumption were determined 3 times per week and body composition was measured weekly.

murine PPARδ = target: T3, murine PPARδ (Mus musculus, UniProt P35396); assay: PPAR-GAL4 transient transfection transactivation assay (SPAP reporter) in CV-1 cells, PPARδ; format: cell-based
T3 construct: expressed in transfected cells; host or cells: CV-1 cells
T3 sequence (P35396 210-438 limits assumed): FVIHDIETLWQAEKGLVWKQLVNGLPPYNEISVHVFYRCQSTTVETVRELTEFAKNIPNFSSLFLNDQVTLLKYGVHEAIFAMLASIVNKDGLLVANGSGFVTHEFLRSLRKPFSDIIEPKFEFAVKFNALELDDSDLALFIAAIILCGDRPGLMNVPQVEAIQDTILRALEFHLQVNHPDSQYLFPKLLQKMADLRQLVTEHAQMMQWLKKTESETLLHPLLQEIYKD
Description: as §1

EC50 (murine PPARδ; CV-1 cells, GAL4 chimera, read-out: mPPARδ, murine receptor activation EC50)	mPPARδ %Max (murine PPARδ; maximal activation vs reference comparator)	selectivity for PPARγ over the other murine PPAR subtypes (murine PPARγ; murine receptors)	Compound	EC50 (murine PPARα)	mPPARα %Max (murine PPARα)	EC50 (murine PPARγ)	mPPARγ %Max (murine PPARγ)	effect on food consumption (in words) [1]	effect on food consumption (in words) ([1]; listed as PPARδ agonist)	increase in food consumption ([1]; 3 mg/kg, after only one day)	food consumption elevated ([1]; 3 mg/kg, over the remaining treatment period)	selectivity for PPARα over PPARγ and PPARδ (murine PPARα; murine receptors)	effect on food consumption (in words) ([1]; listed as PPARα agonist)
			Cc1cc(SCc2sc(-c3ccc(C(F)(F)F)c(F)c3)nc2C)ccc1OCC(=O)O [GW0742]	8.81 µM	55%	10 µM	67%	transient stimulatory effect on food intake from days 12–17	small but statistically significant increase in feeding				
10 µM	12%	> 1000 fold	COC(=O)c1ccccc1N[C@@H](Cc1ccc(OCCc2nc(-c3ccccc3)oc2C)cc1)C(=O)O [GW7845]	10.8 µM	30%	0.0012 µM	247%			46%	more than 20%		
			CCCCCCCN(CCc1ccc(SC(C)(C)C(=O)O)cc1)C(=O)Nc1ccc(F)cc1F [GW9578]	0.008 µM and 0.0081 µM	95%	2.82 µM	96%	significant suppression of food intake				> 250 fold	reduced food consumption
